Literature values, collected in publication PMC3534868 (Pharmaceutical biology, 2011).
Read-outs that look alike come from different tables or passages of the source.

Assays:
[1] = system: KB (human oral epidermoid carcinoma); details: KB cells; for KB IC50: ref Zhang et al., 2004
[2] = system: Col-2; details: Col-2 cells; ref Zhang et al., 2004
[3] = system: LNCaP (prostate); details: LNCaP cells; ref Zhang et al., 2004
[4] = system: LU-1 (lung); details: LU-1 cells; ref Zhang et al., 2004
[5] = system: HUVEC; details: HUVEC cells; ref Zhang et al., 2004
[6] = system: hTERT; details: hTERT cells; ref Zhang et al., 2004
[7] = system: P. falciparum D6
[8] = system: P. falciparum W2
[9] = system: malaria parasite (chloroquine-sensitive and chloroquine-resistant strains); details: for in vitro activities against the malaria parasites: 2005

In the case of C[C@@H]1CC[C@@]2(OC1)O[C@H]1C[C@H]3[C@@H]4CCC5=CC(=O)CC[C@]5(C)[C@H]4C[C@@H](O)[C@]3(C)[C@@]1(O)[C@@H]2C [SLA7037-K001, Asparacosin A], the “KB IC50” value [1] is listed as 10.7 µg/mL, the “Col-2 IC50” value [2] is listed as >20 µg/mL and the “LNCaP IC50” value [3] is listed as >20 µg/mL. For the same compound, the “LU-1 IC50” value [4] was >20 µg/mL, the “HUVEC IC50” value [5] was >20 µg/mL and the “hTERT IC50” value [6] was >20 µg/mL.
For CC1(C)CC[C@]2(C(=O)O)CC[C@]3(C)C(=CC[C@@H]4[C@@]5(C)CC[C@H](O)C(C)(C)[C@@H]5CC[C@]43C)[C@@H]2C1 [SLA7018-K003, Oleanolic acid], the “KB ED50” value ([1]; ref He et al., 2005) is listed as 21 µg/mL, the “D6 IC50” value ([7]; ref He et al., 2005) is listed as 2.116 ± 0.308 µg/mL and the “W2 IC50” value ([8]; ref He et al., 2005) is listed as 2.335 ± 0.013 µg/mL.
In the case of Rouremin [SLA7006-K005], the “KB ED50” value ([1]; ref He et al., 2006) is listed as >20 µg/mL, the “D6 IC50” value ([7]; ref He et al., 2006) is listed as 4 µg/mL and the “W2 IC50” value ([8]; ref He et al., 2006) is listed as 3.5 µg/mL. The “in vitro antimalarial activity” value ([9]; ref He et al., 2006) was “in vitro-active”.
In the case of C=C(C)[C@@H]1CC[C@]2(C(=O)O)CC[C@]3(C)[C@H](CC[C@@H]4[C@@]5(C)CC[C@H](O)C(C)(C)[C@@H]5CC[C@]43C)[C@@H]12 [SLA7062-K001a, Betulinic acid], the “KB ED50” value ([1]; ref Ma et al., 2008) is given as >40 µg/mL, the “D6 IC50” value ([7]; ref Ma et al., 2008) is given as 3.696 µg/mL and the “W2 IC50” value ([8]; ref Ma et al., 2008) is given as 3.776 µg/mL.
For “3″-Hydroxy-4″-methoxy-4″-dehyroxy-nyasol [SLA7037-K007]”, the “KB IC50” value [1] is given as 9.0 µg/mL, the “Col-2 IC50” value [2] is given as 11.7 µg/mL and the “LNCaP IC50” value [3] is given as 11.6 µg/mL. The “LU-1 IC50” value [4] was 7.2 µg/mL, the “HUVEC IC50” value [5] was 16.4 µg/mL and the “hTERT IC50” value [6] was 0.2 µg/mL.
In the case of Oc1ccc(C#C/C=C/COc2ccc(O)cc2)cc1 [SLA7037-K010, Asparenydiol], the “KB IC50” value [1] is given as 2.4 µg/mL, the “Col-2 IC50” value [2] is given as >20 µg/mL and the “LNCaP IC50” value [3] is given as >20 µg/mL. For the same compound, the “LU-1 IC50” value [4] was 19.8 µg/mL, the “HUVEC IC50” value [5] was >20 µg/mL and the “hTERT IC50” value [6] was 0.2 µg/mL.
In the case of C=CC(/C=C\c1ccc(O)cc1)c1ccc(O)c(OC)c1 (stereo not drawn) [SLA7037-K006, 3″-Methoxy-nyasol], the “KB IC50” value [1] is listed as 9.0 µg/mL, the “Col-2 IC50” value [2] is listed as 6.3 µg/mL and the “LNCaP IC50” value [3] is listed as 6.6 µg/mL. The “LU-1 IC50” value [4] was 4.5 µg/mL, the “HUVEC IC50” value [5] was 6.7 µg/mL and the “hTERT IC50” value [6] was 1.2 µg/mL.
In the case of Naucleaorine [SLA7018-K006], the “KB ED50” value ([1]; ref He et al., 2005) is listed as 20 µg/mL, the “D6 IC50” value ([7]; ref He et al., 2005) is listed as 3.61 ± 0.595 µg/mL and the “W2 IC50” value ([8]; ref He et al., 2005) is listed as 4.192 ± 0.008 µg/mL. For the same compound, the “in vitro activities against the malaria parasites” value ([9]; ref He et al.) was “showed in vitro activities”.
For Pinoresinol [SLA7062-K004], the “KB ED50” value ([1]; ref Ma et al., 2008) is given as >40 µg/mL, the “D6 IC50” value ([7]; ref Ma et al., 2008) is given as 1.361 µg/mL and the “W2 IC50” value ([8]; ref Ma et al., 2008) is given as 3.15 µg/mL.
In the case of epi-Methoxy-naucleaorine [SLA7018-K002], the “KB ED50” value ([1]; ref He et al., 2005) is given as >20 µg/mL, the “D6 IC50” value ([7]; ref He et al., 2005) is given as 6.535 ± 0.151 µg/mL and the “W2 IC50” value ([8]; ref He et al., 2005) is given as 6.979 ± 0.008 µg/mL. For the same compound, the “in vitro activities against the malaria parasites” value ([9]; ref He et al.) was “showed in vitro activities”.
For COc1cc([C@H](O[C@@H]2O[C@H](CO)[C@@H](O)[C@H](O)[C@H]2O)[C@H](CO)Oc2c(OC)cc(CCCO)cc2OC)ccc1O [SLA7006-K008, Rourinoside], the “KB ED50” value ([1]; ref He et al., 2006) is given as >20 µg/mL, the “D6 IC50” value ([7]; ref He et al., 2006) is given as 2.1 µg/mL and the “W2 IC50” value ([8]; ref He et al., 2006) is given as 1.2 µg/mL. For the same compound, the “in vitro antimalarial activity” value ([9]; ref He et al., 2006) was “in vitro-active”.
In the case of C=C(C)[C@@H]1CC[C@]2(C(=O)O)CC[C@]3(C)[C@H](CC[C@@H]4[C@@]5(C)CC[C@H](OC(=O)/C=C/c6ccc(OC(C)=O)c(OC(C)=O)c6)C(C)(C)[C@@H]5CC[C@]43C)[C@@H]12 [SLA7062-K001b, Betulinic acid 3β-bisacetylcaffeate], the “KB ED50” value ([1]; ref Ma et al., 2008) is listed as 2.07 µg/mL, the “D6 IC50” value ([7]; ref Ma et al., 2008) is listed as 0.48 µg/mL and the “W2 IC50” value ([8]; ref Ma et al., 2008) is listed as 0.443 µg/mL.
In the case of C=C(C)[C@@H]1CC[C@]2(C(=O)O)CC[C@]3(C)[C@H](CC[C@@H]4[C@@]5(C)CC[C@H](OC(=O)/C=C/c6ccc(O)c(O)c6)C(C)(C)[C@@H]5CC[C@]43C)[C@@H]12 [SLA7062-K001, Betulinic acid 3β-caffeate], the “KB ED50” value ([1]; ref Ma et al., 2008) is given as 2.5 µg/mL, the “D6 IC50” value ([7]; ref Ma et al., 2008) is given as 0.87 µg/mL and the “W2 IC50” value ([8]; ref Ma et al., 2008) is given as 0.607 µg/mL. The “in vitro antimalarial activity” value ([9]; chloroquine-sensitive and chloroquine-resistant strains, ref Ma et al., 2008) was “in vitro-active”.
In the case of C[C@H]1[C@H](C)CC[C@]2(C(=O)O)CC[C@]3(C)C(=CC[C@@H]4[C@@]5(C)CC[C@@H](O)[C@@](C)(CO)[C@@H]5CC[C@]43C)[C@H]12 [SLA7018-K008, 3α,23-Dihydroxy-urs-12-en-28-oic acid], the “KB ED50” value ([1]; ref He et al., 2005) is listed as >20 µg/mL, the “D6 IC50” value ([7]; ref He et al., 2005) is listed as 4.567 ± 0.702 µg/mL and the “W2 IC50” value ([8]; ref He et al., 2005) is listed as 6.006 ± 2.581 µg/mL.
For COc1cc(OCC=CC#Cc2ccc(O)cc2)ccc1O [SLA7037-K004, 3′-Methoxy-asparenydiol], the “KB IC50” value [1] is listed as 12.0 µg/mL, the “Col-2 IC50” value [2] is listed as >20 µg/mL and the “LNCaP IC50” value [3] is listed as >20 µg/mL. The “LU-1 IC50” value [4] was 19.7 µg/mL, the “HUVEC IC50” value [5] was >20 µg/mL and the “hTERT IC50” value [6] was 0.3 µg/mL.
In the case of Gongroneside A [SLA7530-K001], the “KB ED50” value ([1]; ref Libman et al., 2008) is listed as >20 µg/mL, the “D6 IC50” value ([7]; ref Libman et al., 2008) is listed as 2.33 µg/mL and the “W2 IC50” value ([8]; ref Libman et al., 2008) is listed as 2.02 µg/mL. For the same compound, the “in vitro antimalarial activity” value ([9]; both strains of the malaria parasites, ref Libman et al., 2008) was “in vitro-active”.
In the case of C[C@H]1CC[C@@]2(OC1)O[C@H]1C[C@H]3[C@@H]4CC[C@@H]5C[C@@H](O[C@@H]6O[C@H](CO[C@@H]7OC[C@H](O)[C@H](O)[C@H]7O)[C@@H](O[C@@H]7OC[C@H](O)[C@H](O)[C@H]7O)[C@H](O)[C@H]6O[C@@H]6O[C@H](CO)[C@@H](O)[C@H](O)[C@H]6O)CC[C@]5(C)[C@H]4CC[C@]3(C)[C@H]1[C@@H]2C [SLA7037-K003, Asparacoside], the “KB IC50” value [1] is given as 4.8 µg/mL, the “Col-2 IC50” value [2] is given as 5.4 µg/mL and the “LNCaP IC50” value [3] is given as 10.1 µg/mL. The “LU-1 IC50” value [4] was 4.2 µg/mL, the “HUVEC IC50” value [5] was 4.1 µg/mL and the “hTERT IC50” value [6] was 4.3 µg/mL.
